Data as given in ChEMBL document CHEMBL5120915, “Synthesis of Sulfur-Containing Analogues of Hedychenone, a Labdane Diterpenoid from Hedychium spicatum” (J Nat Prod, 2022).
≈ marks a conversion by molar mass, not a printed value.

How the values were obtained:
[1] = Inhibition of Saccharomyces cerevisiae alpha-glucosidase using pNPG as substrate preincubated for 5 mins followed by pNPG addition and measured after 10 mins by microplate reader method
[2] = tested on: Staphylococcus aureus; assay: Antibacterial activity against Staphylococcus aureus MTCC 96 assessed as zone of inhibition preincubated for 2 to 3 hrs followed by 12 to 24 hrs incubation at aerobic condition by well diffusion method; type: functional; conditions: time 14-27 hrs

SMILES	IC50 [1]	inhibition zone (IZ) [2]
CC1=CC(=O)[C@H]2C(C)(C)CCC[C@]2(C)[C@H]1/C=C/c1ccoc1Sc1ccc2ccccc2c1	9.7 µg/mL (≈ 21.2 µM)	
C[C@H]1O[C@H](O[C@H]2[C@H](O)[C@@H](O)[C@@H](O[C@H]3[C@H](O)[C@@H](O)C(O)O[C@@H]3CO)O[C@@H]2CO)[C@H](O)[C@@H](O)[C@@H]1N[C@H]1C=C(CO)[C@@H](O)[C@H](O)[C@H]1O (stereo partly specified) [ACARBOSE]	3.95 µg/mL (≈ 6.12 µM)	
CC1=CC(=O)[C@H]2C(C)(C)CCC[C@]2(C)[C@H]1/C=C/c1ccoc1Sc1ccc(F)cc1	9.7 µg/mL (≈ 22.8 µM)	
COc1ccccc1Sc1occc1/C=C/[C@H]1C(C)=CC(=O)[C@H]2C(C)(C)CCC[C@]12C	11.82 µg/mL (≈ 27.1 µM)	
CC1=CC(=O)[C@H]2C(C)(C)CCC[C@]2(C)[C@H]1/C=C/c1ccoc1SCc1ccccc1	13.34 µg/mL (≈ 31.7 µM)	
CC1=CC(=O)[C@H]2C(C)(C)CCC[C@]2(C)[C@H]1/C=C/c1ccoc1Sc1ccccc1	13.17 µg/mL (≈ 32.4 µM)	
CSc1ccc(Sc2occc2/C=C/[C@H]2C(C)=CC(=O)[C@H]3C(C)(C)CCC[C@]23C)cc1	9.7 µg/mL (≈ 21.4 µM)	
CC1=CC(=O)[C@H]2C(C)(C)CCC[C@]2(C)[C@H]1/C=C/c1ccoc1SCc1ccc(F)cc1	9.7 µg/mL (≈ 22.1 µM)	
CC1=CC(=O)[C@H]2C(C)(C)CCC[C@]2(C)[C@H]1/C=C/c1ccoc1Sc1cccc(Br)c1	12.23 µg/mL (≈ 25.2 µM)	
CC1=CC(=O)[C@H]2C(C)(C)CCC[C@]2(C)[C@H]1/C=C/c1ccoc1Sc1cccc(F)c1	9.7 µg/mL (≈ 22.8 µM)	
CC1=CC(=O)[C@H]2C(C)(C)CCC[C@]2(C)[C@H]1/C=C/c1ccoc1SCc1ccc(Cl)cc1	9.7 µg/mL (≈ 21.3 µM)	
CC1=CC(=O)[C@H]2C(C)(C)CCC[C@]2(C)[C@H]1/C=C/c1ccoc1Sc1ccc(Br)cc1	9.7 µg/mL (≈ 20 µM)	
CC1=CC(=O)[C@H]2C(C)(C)CCC[C@]2(C)[C@H]1/C=C/c1ccoc1Sc1cccc(C)c1	9.7 µg/mL (≈ 23.1 µM)	

Continued, in another order:

IC50 [1]	SMILES	inhibition zone (IZ) [2]
9.7 µg/mL (≈ 20.4 µM)	CC1=CC(=O)[C@H]2C(C)(C)CCC[C@]2(C)[C@H]1/C=C/c1ccoc1Sc1ccc(Cl)cc1Cl	
9.7 µg/mL (≈ 22 µM)	CC1=CC(=O)[C@H]2C(C)(C)CCC[C@]2(C)[C@H]1/C=C/c1ccoc1Sc1cccc(Cl)c1	6 mm
12.15 µg/mL (≈ 28.6 µM)	CC1=CC(=O)[C@H]2C(C)(C)CCC[C@]2(C)[C@H]1/C=C/c1ccoc1Sc1ccccc1F	
9.7 µg/mL (≈ 22 µM)	CC1=CC(=O)[C@H]2C(C)(C)CCC[C@]2(C)[C@H]1/C=C/c1ccoc1Sc1ccc(Cl)cc1	
9.7 µg/mL (≈ 23.1 µM)	CC1=CC(=O)[C@H]2C(C)(C)CCC[C@]2(C)[C@H]1/C=C/c1ccoc1Sc1ccccc1C	
13.01 µg/mL (≈ 26.8 µM)	CC1=CC(=O)[C@H]2C(C)(C)CCC[C@]2(C)[C@H]1/C=C/c1ccoc1Sc1ccccc1Br	
9.7 µg/mL (≈ 22 µM)	CC1=CC(=O)[C@H]2C(C)(C)CCC[C@]2(C)[C@H]1/C=C/c1ccoc1Sc1ccccc1Cl	
